In US20220073553A1, “METHOD FOR EXTRACTING HIGH-PURITY POLYDEOXYRIBONUCLEOTIDE FROM SALMON TESTES” (Bio Medi pharm Co. Ltd., priority 2020, published 2022):
Values joined by “and” are separate entries in the source; they are usually repeats but may differ in a detail not shown here. Equal entries are not always repeated. No end group written: not given here.

Tested on: sperm from regions of salmon testes
Test: Motility of sperm from regions of salmon testes after hormone treatment
Type: cell-based
Details: regions C of testes of male salmon caught in a river in October; treated with different types of hormones
Procedure: The immature testicular regions A, B, and C are ground and diluted with an artificial seminal plasma. The grinding is performed by the following procedure. First, the testes are cut into small pieces with scissors such that the membranes surrounding the spermatids of the testes are peeled off. […] Here, care should be taken because a high speed of the impeller causes cell disruption, increasing the possibility that impurities may increase. Immature regions (except for regions D where semen leaks out, see FIG. 4) were collected by cutting the testes of male salmon. […] Regions C of the testes of male salmon caught in a river in October were treated with three different types of hormones: hGC, luteinizing hormone-releasing hormone (LhRH), and DHP.

luteinizing hormone-releasing hormone (QHWSYGLRPG; ends and bridges not checked; UniProt P01148 24-33, looked up) [LhRH, hormone used for comparison with hCG]
Sperm motility (%): 5% and 5 ± 2.8%
